Assay results as given in ChEMBL document CHEMBL4308901, “Synthesis and biological evaluation of BMS-986120 and its deuterated derivatives as PAR4 antagonists” (Bioorg Med Chem, 2019).

Species: Mus musculus
Experiment: Antiplatelet activity in ICR mouse platelet rich plasma assessed as inhibition of PAR4-AP-induced platelet aggregation pretreated for 5 mins followed by PAR4-AP addition by aggregometric analysis
Format: functional

| SMILES | IC50 [nM] |
| --- | --- |
| COc1cc(OCc2nc(N3CCOCC3)sc2C)c2cc(-c3cn4nc(OC)sc4n3)oc2c1 | 7.8 |
| [2H]C(Oc1cc(OC)cc2oc(-c3cn4nc(OC)sc4n3)cc12)c1nc(N2CCOCC2)sc1C (stereo not drawn) | 14.5 |
| [2H]C([2H])([2H])Oc1cc(OCc2nc(N3CCOCC3)sc2C)c2cc(-c3cn4nc(OC([2H])([2H])[2H])sc4n3)oc2c1 | 6.97 |
| [2H]C([2H])([2H])Oc1nn2cc(-c3cc4c(OCc5nc(N6CCOCC6)sc5C)cc(OC)cc4o3)nc2s1 | 8.74 |
| [2H]C([2H])([2H])Oc1cc(OCc2nc(N3CCOCC3)sc2C)c2cc(-c3cn4nc(OC)sc4n3)oc2c1 | 6.3 |
| [2H]C(Oc1cc(OC([2H])([2H])[2H])cc2oc(-c3cn4nc(OC)sc4n3)cc12)c1nc(N2CCOCC2)sc1C (stereo not drawn) | 8.15 |
| [2H]C(Oc1cc(OC([2H])([2H])[2H])cc2oc(-c3cn4nc(OC([2H])([2H])[2H])sc4n3)cc12)c1nc(N2CCOCC2)sc1C (stereo not drawn) | 9.45 |
| [2H]C(Oc1cc(OC)cc2oc(-c3cn4nc(OC([2H])([2H])[2H])sc4n3)cc12)c1nc(N2CCOCC2)sc1C (stereo not drawn) | 7.69 |
